Results on two compounds are retold here after paper PMC7383625, “Sequence‐Based Prediction of Promiscuous Acyltransferase Activity in Hydrolases” (Angewandte Chemie (International Ed. in English), 2020).

Common to all, as to assay type: biochemical
Assay [1] deals with T1, Est8 (uncultured bacterium, UniProt Z9EH37ATT5).
T1 construct: bHSL esterase with N-terminal cap domain; crystal structure solved here
T1 sequence (Z9EH37ATT5 1-297): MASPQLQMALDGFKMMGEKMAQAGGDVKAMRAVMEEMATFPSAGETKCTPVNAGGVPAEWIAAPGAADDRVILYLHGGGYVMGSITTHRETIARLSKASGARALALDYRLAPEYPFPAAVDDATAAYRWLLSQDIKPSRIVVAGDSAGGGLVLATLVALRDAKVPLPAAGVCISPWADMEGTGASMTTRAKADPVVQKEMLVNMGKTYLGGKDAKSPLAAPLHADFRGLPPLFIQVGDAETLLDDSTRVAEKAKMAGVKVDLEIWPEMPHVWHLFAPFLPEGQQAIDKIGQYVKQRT
Kind of assay: GC of 2-phenylethyl acetate formation. The conditions noted are these: acyl acceptor, 20 mM; vinyl acetate 200 mM as acyl donor; 200 mM buffer at pH optimum.

The target of a further assay is T2, 3ZWQ (Pyrobaculum calidifontis, UniProt A3MVR4).
T2 construct: gene Pcal_1307; named only by PDB code; construct in supplement
T2 sequence (A3MVR4 1-313): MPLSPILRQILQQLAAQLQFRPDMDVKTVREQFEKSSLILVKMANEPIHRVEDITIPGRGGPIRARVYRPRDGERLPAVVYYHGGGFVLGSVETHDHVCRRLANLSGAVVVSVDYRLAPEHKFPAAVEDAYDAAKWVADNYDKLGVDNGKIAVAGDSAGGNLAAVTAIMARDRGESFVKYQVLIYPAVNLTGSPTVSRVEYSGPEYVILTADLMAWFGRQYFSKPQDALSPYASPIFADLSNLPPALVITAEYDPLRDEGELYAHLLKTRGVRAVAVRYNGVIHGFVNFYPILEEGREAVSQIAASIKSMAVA
Kind of assay: colorimetric pNPA acyltransferase assay, pNP release at […] nm. The conditions noted are these: acyl donor; benzyl alcohol or 2-phenylethanol as acyl acceptor.

A further assay addresses T3, 3K6K (uncultured bacterium, UniProt Z9ICY0V5A2).
T3 construct: named only by PDB code; construct in supplement
T3 sequence (Z9ICY0V5A2 15-328): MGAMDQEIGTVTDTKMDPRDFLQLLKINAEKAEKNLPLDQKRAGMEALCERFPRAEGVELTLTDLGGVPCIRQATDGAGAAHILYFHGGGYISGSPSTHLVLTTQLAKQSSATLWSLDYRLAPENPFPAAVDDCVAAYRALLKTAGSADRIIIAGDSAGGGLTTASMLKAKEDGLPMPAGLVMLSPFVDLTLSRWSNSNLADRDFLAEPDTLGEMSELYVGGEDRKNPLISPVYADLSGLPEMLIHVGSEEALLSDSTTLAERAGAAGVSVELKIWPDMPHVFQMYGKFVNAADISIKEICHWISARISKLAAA
The assay is described as above. The conditions noted are these: acyl donor; benzyl alcohol or 2-phenylethanol as acyl acceptor.

Assay [2] concerns the target T1, Est8. The description is as above. The following applies: acyl donor; benzyl alcohol or 2-phenylethanol as acyl acceptor.
Another assay deals with T4, 3FAK (uncultured bacterium, UniProt Q0GMU2).
T4 construct: named only by PDB code; construct in supplement
T4 sequence (Q0GMU2 with tags, fused parts or gaps): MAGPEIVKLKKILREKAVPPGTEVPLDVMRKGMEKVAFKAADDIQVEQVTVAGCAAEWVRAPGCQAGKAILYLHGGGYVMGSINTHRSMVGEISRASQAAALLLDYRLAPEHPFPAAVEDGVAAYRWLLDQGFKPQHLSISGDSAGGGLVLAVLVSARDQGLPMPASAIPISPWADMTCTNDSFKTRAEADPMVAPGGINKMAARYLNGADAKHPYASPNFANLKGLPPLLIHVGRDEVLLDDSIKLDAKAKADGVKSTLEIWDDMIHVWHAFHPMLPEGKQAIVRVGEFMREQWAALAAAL
Described as above. The following applies: acyl donor; benzyl alcohol or 2-phenylethanol as acyl acceptor.

A further assay addresses T5, 4XVC (uncultured bacterium, UniProt Z9PJA9OM60).
T5 construct: named only by PDB code; construct in supplement
T5 sequence (Z9PJA9OM60 21-317): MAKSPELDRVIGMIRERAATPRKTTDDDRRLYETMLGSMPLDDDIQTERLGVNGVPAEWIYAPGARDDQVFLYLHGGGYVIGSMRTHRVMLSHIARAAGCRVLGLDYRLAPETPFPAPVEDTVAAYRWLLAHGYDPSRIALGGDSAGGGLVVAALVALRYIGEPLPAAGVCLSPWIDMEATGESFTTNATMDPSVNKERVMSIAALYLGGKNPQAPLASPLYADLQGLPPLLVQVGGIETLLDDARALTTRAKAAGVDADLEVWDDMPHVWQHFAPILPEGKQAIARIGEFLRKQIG
Described as above. The following applies: acyl donor; benzyl alcohol or 2-phenylethanol as acyl acceptor.

Molecules are shown by their SMILES.

Take `OCCc1ccccc1` [2-phenylethanol]: the “GC of 2-phenylethyl acetate formation” value at Est8 [1] is “For Est8, product hydrolysis became more dominant than acyl transfer quickly”.

Turning to `CC(=O)Oc1ccc([N+](=O)[O-])cc1` [pNPA], the “colorimetric pNPA acyltransferase assay, pNP release at 405 nm” value was 3ZWQ showed three‐fold higher acyltransferase activity with benzyl alcohol, outperforming 1EVQ on 3ZWQ; “reactions were carried out for Est8 and its homologues using both benzyl alcohol” on 3K6K; “reactions were carried out for Est8 and its homologues using both benzyl alcohol” at Est8 [2]; “reactions were carried out for Est8 and its homologues using both benzyl alcohol” on 3FAK; “reactions were carried out for Est8 and its homologues using both benzyl alcohol” at 4XVC.
